Patent publication US20240158446A1, “CYCLIC COMPOUND HAVING SELECTIVE INHIBITORY ACTION ON KRAS OVER HRAS AND NRAS” (CHUGAI SEIYAKU KABUSHIKI KAISHA, priority 2021, published 2024)

Key:
[1] = molecular target: GDP-bound KRAS wild-type protein (Homo sapiens, UniProt P01116); assay: Binding to KRAS by surface plasmon resonance (SPR), Single Cycle Kinetics; conditions: SPR, Single Cycle Kinetics, GDP-bound KRAS wild-type protein; read-out: KRAS KD
[2] = test system: human lung cancer strain NCI-H441;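 further: cell proliferation inhibition after four days measured by CellTiter-Glo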
[3] = molecular target: GDP-bound NRAS wild-type protein (Homo sapiens, UniProt P01111); assay: Binding to NRAS by surface plasmon resonance (SPR), Single Cycle Kinetics; conditions: SPR, GDP-bound NRAS wild-type protein vs GDP-bound KRAS wild-type protein
Chain of GDP-bound NRAS wild-type protein (P01111 whole entry): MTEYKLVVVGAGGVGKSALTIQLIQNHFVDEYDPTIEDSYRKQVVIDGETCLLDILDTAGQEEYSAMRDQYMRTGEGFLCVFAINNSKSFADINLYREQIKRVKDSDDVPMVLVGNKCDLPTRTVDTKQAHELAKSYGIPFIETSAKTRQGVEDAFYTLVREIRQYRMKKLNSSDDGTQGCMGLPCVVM

[4] = molecular target: GDP-bound HRAS wild-type protein (Homo sapiens, UniProt P01112); assay: Binding to HRAS by surface plasmon resonance (SPR), Single Cycle Kinetics; conditions: SPR, GDP-bound HRAS wild-type protein vs GDP-bound KRAS wild-type protein
Chain of GDP-bound HRAS wild-type protein (P01112 whole entry): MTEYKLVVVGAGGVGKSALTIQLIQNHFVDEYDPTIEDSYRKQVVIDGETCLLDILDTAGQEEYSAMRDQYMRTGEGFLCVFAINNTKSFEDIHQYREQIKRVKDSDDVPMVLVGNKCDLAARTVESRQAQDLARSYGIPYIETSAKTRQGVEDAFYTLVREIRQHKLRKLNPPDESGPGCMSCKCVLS

Chain of GDP-bound KRAS wild-type protein (P01116 whole entry): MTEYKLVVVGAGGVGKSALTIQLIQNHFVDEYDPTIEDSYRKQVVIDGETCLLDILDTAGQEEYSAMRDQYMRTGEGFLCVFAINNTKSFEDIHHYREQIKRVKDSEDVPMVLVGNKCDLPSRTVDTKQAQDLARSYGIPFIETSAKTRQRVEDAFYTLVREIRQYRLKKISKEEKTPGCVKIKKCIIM

| Structure (SMILES) | Kd [1] | IC50 [2] | NRAS/KRAS (ratio of KD value for NRAS to KD value for KRAS) [3] | HRAS/KRAS (ratio of KD value for HRAS to KD value for KRAS) [4] |
| --- | --- | --- | --- | --- |
| CCC(CC)[C@H]1C(=O)N(C)[C@H](C(=O)N(C)C)CC(=O)N(C)[C@@H](CC2CC2)C(=O)N[C@@H]([C@@H](C)CC)C(=O)N(C)CC(=O)N(C)[C@H]2C/C=C\CCN(C2=O)[C@@H](CC2CCC(F)(F)CC2)C(=O)N(C)CC(=O)N[C@@H](CCc2cc(F)c(C(F)(F)F)c(F)c2)C(=O)N2C[C@@H](C)C[C@H]2C(=O)NC2(CC(C)(C)C2)C(=O)N1C [PP2500] | 1.7 nM | 125 nM | A (a compound having 10 or more and less than 20 is denoted as A) | A (a compound having 10 or more and less than 20 is denoted as A) |
| CCCOC[C@H]1C(=O)N[C@@H]([C@@H](C)CC)C(=O)N(C)CC(=O)N(C)[C@H]2C/C=C\CCN(C2=O)[C@@H](CC2CCCCC2)C(=O)N(C)CC(=O)N[C@@H](CCc2cc(F)c(C(F)(F)F)c(F)c2)C(=O)N2C[C@H](OCC)C[C@H]2C(=O)NC2(CC(C)(C)C2)C(=O)N(C)[C@@H](C(CC)CC)C(=O)N(C)[C@H](C(=O)N(C)C)CC(=O)N1C [PP2501] | 1.8 nM | 180 nM | AA (a compound having 20 or more is denoted as AA) | A (a compound having 10 or more and less than 20 is denoted as A) |
| CC[C@H](C)[C@@H]1NC(=O)[C@H](COC)N(C)C(=O)C[C@@H](C(=O)N(C)C)N(C)C(=O)[C@H](C2CCCC2)N(C)C(=O)C2(CC(C)(C)C2)NC(=O)[C@@H]2C[C@H](C)CN2C(=O)[C@H](CCc2ccc(C(F)(F)F)c(Cl)c2)NC(=O)CN(C)C(=O)[C@H](Cc2ccc(C)cc2)N2CC/C=C\C[C@@H](C2=O)N(C)C(=O)CN(C)C1=O [PP2502] | 0.065 nM | 7.9 nM | A (a compound having 10 or more and less than 20 is denoted as A) | A (a compound having 10 or more and less than 20 is denoted as A) |
| CCOC[C@H]1C(=O)N[C@@H]([C@@H](C)CC)C(=O)N(C)CC(=O)N(C)[C@H]2C/C=C\CCN(C2=O)[C@@H](Cc2ccc(C)cc2)C(=O)N(C)CC(=O)N[C@@H](CCc2ccc(C(F)(F)F)c(OC)c2)C(=O)N2C[C@@H](C)C[C@H]2C(=O)NC2(CC(C)(C)C2)C(=O)N(C)[C@@H](C2CCCC2)C(=O)N(C)[C@H](C(=O)N(C)C)CC(=O)N1C [PP2505] | 0.13 nM | 17.2 nM | A (a compound having 10 or more and less than 20 is denoted as A) | B (a compound having 3 or more and less than 10 is denoted as B) |
| CC[C@H](C)[C@@H]1NC(=O)[C@H](COC)N(C)C(=O)C[C@@H](C(=O)N(C)CC)N(C)C(=O)[C@H](C2CCCC2)N(C)C(=O)C2(CC(C)(C)C2)NC(=O)[C@@H]2C[C@H](C)CN2C(=O)[C@H](CCc2ccc(C(F)(F)F)c(Cl)c2)NC(=O)CN(C)C(=O)[C@H](Cc2ccc(C)cc2)N2CC/C=C\C[C@@H](C2=O)N(C)C(=O)CN(C)C1=O [PP2506] | 0.13 nM | 10.6 nM | A (a compound having 10 or more and less than 20 is denoted as A) | A (a compound having 10 or more and less than 20 is denoted as A) |
| CCO[C@@H]1C[C@H]2C(=O)NC3(CC(C)(C)C3)C(=O)N(C)[C@@H](C3CCCC3)C(=O)N(C)[C@H](C(=O)N(C)CC)CC(=O)N(C)[C@@H](COC)C(=O)N[C@@H]([C@@H](C)CC)C(=O)N(C)CC(=O)N(C)[C@H]3C/C=C\CCN(C3=O)[C@@H](Cc3ccc(C)cc3)C(=O)N(C)CC(=O)N[C@@H](CCc3ccc(C(F)(F)F)c(Cl)c3)C(=O)N2C1 [PP2507] | 0.061 nM | 8.9 nM | AA (a compound having 20 or more is denoted as AA) | A (a compound having 10 or more and less than 20 is denoted as A) |
| CCC[C@H]1C(=O)N[C@@H](CC(C)C)C(=O)N(C2CC2)CC(=O)N(C)[C@H]2C/C=C\CCN(C2=O)[C@@H](Cc2ccc(C)cc2)C(=O)N(C)CC(=O)N[C@@H](CCc2cc(F)c(C(F)(F)F)c(F)c2)C(=O)N2C[C@H](OCC)C[C@H]2C(=O)NC2(CC(C)(C)C2)C(=O)N(C)[C@@H](C2CCCC2)C(=O)N(C)[C@H](C(=O)N(C)C)CC(=O)N1C [PP2508] | 3.4 nM | 124 nM | A (a compound having 10 or more and less than 20 is denoted as A) | B (a compound having 3 or more and less than 10 is denoted as B) |
| CCC[C@H]1C(=O)N[C@@H](CC(C)C)C(=O)N(C2CC2)CC(=O)N(C)[C@H]2C/C=C\CCN(C2=O)[C@@H](Cc2ccc(C)cc2)C(=O)N(C)CC(=O)N[C@@H](CCc2ccc(C(F)(F)F)c(OC)c2)C(=O)N2C[C@H](OCC)C[C@H]2C(=O)NC2(CC(C)(C)C2)C(=O)N(C)[C@@H](C2CCCC2)C(=O)N(C)[C@H](C(=O)N(C)C)CC(=O)N1C [PP2510] | 3.9 nM | 180 nM | A (a compound having 10 or more and less than 20 is denoted as A) | B (a compound having 3 or more and less than 10 is denoted as B) |
| C#CCN1CC(=O)N(C)[C@H]2C/C=C\CCN(C2=O)[C@@H](Cc2ccc(C)cc2)C(=O)N(C)CC(=O)N[C@@H](CCc2cc(F)c(C(F)(F)F)c(F)c2)C(=O)N2C[C@H](OCC)C[C@H]2C(=O)NC2(CC(C)(C)C2)C(=O)N(C)[C@@H](C2CCCC2)C(=O)N(C)[C@H](C(=O)N(C)C)CC(=O)N(C)[C@@H](CCC)C(=O)N[C@@H](CC(C)C)C1=O [PP2512] | 2 nM | 109 nM | A (a compound having 10 or more and less than 20 is denoted as A) | A (a compound having 10 or more and less than 20 is denoted as A) |
| CC[C@H](C)[C@@H]1NC(=O)[C@H](COC)N(C)C(=O)C[C@@H](C(=O)N(C)C)N(C)C(=O)[C@H](C2CCCC2)N(C)C(=O)C2(CC(C)(C)C2)NC(=O)[C@@H]2C[C@@H](OC(C)C)CN2C(=O)[C@H](CCc2ccc(Cl)c(Cl)c2)NC(=O)CN(C)C(=O)[C@H](CC2CCCCC2)N2CC/C=C\C[C@@H](C2=O)N(C)C(=O)CN(C2CC2)C1=O [PP2513] | 2.6 nM | 303 nM | A (a compound having 10 or more and less than 20 is denoted as A) | A (a compound having 10 or more and less than 20 is denoted as A) |
| C#CCN1CC(=O)N(C)[C@H]2C/C=C\CCN(C2=O)[C@@H](Cc2ccc(C)cc2)C(=O)N(C)CC(=O)N[C@@H](CCc2ccc(C(F)(F)F)c(OC)c2)C(=O)N2C[C@H](OCC)C[C@H]2C(=O)NC2(CC(C)(C)C2)C(=O)N(C)[C@@H](C2CCCC2)C(=O)N(C)[C@H](C(=O)N(C)C)CC(=O)N(C)[C@@H](CCC)C(=O)N[C@@H](CC(C)C)C1=O [PP2514] | 2.4 nM | 86.8 nM | A (a compound having 10 or more and less than 20 is denoted as A) | B (a compound having 3 or more and less than 10 is denoted as B) |
